Source: ChEMBL document CHEMBL4837257, “Discovery of the Oxadiazine FRM-024: A Potent CNS-Penetrant Gamma Secretase Modulator” (J Med Chem, 2021)

Key:
Mus musculus = assay: In vivo modulation of gamma secretase in mouse assessed as reduction in Abeta42 levels in brain at 30 mg/kg, po measured after 6 hrs relative to control; assay type: functional; parameters: scale not given: the % may be the effect or the level left
[1] = Ratio of free drug concentration in mouse brain to EC90 for modulation of gamma secretase in human H4 cells expressing human wild type APP751 assessed as reduction in amyloid beta42 level incubated overnight by ELISA; assay type: ADME, cell-based
Gamma-secretase = assay: (§1) Modulation of gamma-secretase in human H4 cells expressing human wild type APP751 assessed as reduction in amyloid beta42 level incubated overnight by ELISA; assay type: cell-based
[2] = biological target: Gamma-secretase (Homo sapiens) (UniProt Q96BI3+Q9NZ42+Q8WW43+P49768+Q92542+P49810); assay: as §1; assay type: cell-based; conditions: filed as modulator
[3] = Unbound clearance in human hepatocytes; assay type: ADME, cell-based, Hepatocyte
Rattus norvegicus [4] = assay: In vivo modulation of gamma secretase in rat assessed as reduction in Abeta42 levels in brain at 30 mg/kg, po measured after 6 hrs by ELISA relative to control; assay type: functional; parameters: scale not given: the % may be the effect or the level left
Rattus norvegicus [5] = assay: In vivo modulation of gamma secretase in rat assessed as reduction in Abeta42 levels in CSF at 30 mg/kg, po measured after 6 hrs by ELISA relative to control; assay type: functional, Cerebrospinal fluid; parameters: scale not given: the % may be the effect or the level left
[6] = Ratio of free drug concentration in rat brain to EC90 for modulation of gamma secretase in human H4 cells expressing human wild type APP751 assessed as reduction in amyloid beta42 level incubated overnight by ELISA; assay type: ADME, cell-based

SMILES | Ratio [1] | EC50 (Gamma-secretase) [nM] | EC90 [2] [nM] | CL free [3] [mL/min/kg] | Ratio [6] | Activity (Mus musculus) [%] | Activity (Rattus norvegicus [4]) [%] | Activity (Rattus norvegicus [5]) [%]
COc1nc(C2=NOC(C)C(c3cccc(Cl)c3)N2)ccc1-n1cnc(C)c1 (stereo not given) | – | 14 | – | 19 | – | – | – | –
COc1nc(C2=NOC(C)C(c3ccc(Cl)c(F)c3)N2)ccc1-n1cnc(C)c1 (stereo not given) | 2.6 | 8 | 97 | 1 | 2.4 | 43 | 44 | 73
COc1nc(C2=NOCC(c3ccc(C(F)(F)F)c(Cl)c3)N2)ccc1-n1cnc(C)c1 (stereo not given) | – | 10 | – | – | – | – | – | –
COc1nc(C2=NOCC(c3cc(Cl)cc(Cl)c3)N2)ccc1-n1cnc(C)c1 (stereo not given) | 0.8 | 10 | 104 | 85 | – | 23 | – | –
COc1nc(C2=NOCC(c3ccc(F)c(C(F)(F)F)c3)N2)ccc1-n1cnc(C)c1 (stereo not given) | 0.7 | 19 | 268 | – | – | 41 | – | –
COc1nc(C2=NOC(C)C(c3ccc(Cl)c(Cl)c3)N2)ccc1-n1cnc(C)c1 (stereo not given) | – | 5 | – | 20 | – | – | – | –
COc1nc(C2=NOCC(c3cccc(C(F)(F)F)c3)N2)ccc1-n1cnc(C)c1 (stereo not given) | – | 43 | – | – | – | – | – | –
COc1nc(C2=NOC[C@H](c3cc4ccccc4o3)N2)ccc1-n1cnc(C)c1 | 1.1 | 35 | 383 | 51 | 0.7 | 43 | 30 | 58
COc1nc(C2=NOCC(c3ccc(C4CC4)c(Cl)c3)N2)ccc1-n1cnc(C)c1 (stereo not given) | – | 13 | – | 1147 | – | – | – | –
COc1nc(C2=NOC(C)(C)C(c3ccc(Cl)cc3)N2)ccc1-n1cnc(C)c1 (stereo not given) | – | 23 | – | 15 | – | – | – | –
COc1nc(C2=NOC(C)C(c3ccc(Cl)cc3)N2)ccc1-n1cnc(C)c1 (stereo not given) | 4.5 | 16 | 187 | 12 | 0.3 | 47 | 41 | 84
COc1nc(C2=NOCC(c3ccc(Cl)c(C4CC4)c3)N2)ccc1-n1cnc(C)c1 (stereo not given) | – | 13 | – | 274 | – | – | – | –
COc1nc(C2=NOC(C)(C)C(c3ccccc3)N2)ccc1-n1cnc(C)c1 (stereo not given) | – | 75 | – | 5 | – | – | – | –
COc1nc(C2=NOCC(c3ccc(Cl)c(C(F)(F)F)c3)N2)ccc1-n1cnc(C)c1 (stereo not given) | – | 8 | – | 6 | – | – | – | –
COc1nc(C2=NOCC(c3ccc(C(F)(F)F)c(F)c3)N2)ccc1-n1cnc(C)c1 (stereo not given) | – | 21 | – | 62 | – | – | – | –

Further lines, with some results ahead:

Ratio [1] | EC50 (Gamma-secretase) [nM] | EC90 [2] [nM] | CL free [3] [mL/min/kg] | Ratio [6] | SMILES | Activity (Mus musculus) [%] | Activity (Rattus norvegicus [4]) [%] | Activity (Rattus norvegicus [5]) [%]
1.5 | 23 | 278 | 13 | – | COc1nc(C2=NOCC(c3ccc(F)c(Cl)c3)N2)ccc1-n1cnc(C)c1 (stereo not given) | 30 | – | –
– | 26 | – | 15 | – | COc1nc(C2=NOCC(c3cccc(Cl)c3)N2)ccc1-n1cnc(C)c1 (stereo not given) | – | – | –
– | 60 | – | – | – | COc1nc(C2=NOCC(c3ccc(F)cc3)N2)ccc1-n1cnc(C)c1 (stereo not given) | – | – | –
– | 39 | – | 208 | – | COc1nc(C2=NOCC(c3ccc(C4CC4)cc3)N2)ccc1-n1cnc(C)c1 (stereo not given) | – | – | –
– | 97 | – | 21 | – | COc1nc(C2=NOCC(c3ccccc3)N2)ccc1-n1cnc(C)c1 (stereo in doubt; 7a) | – | – | –
1.1 | 34 | 407 | 12 | – | COc1nc(C2=NOCC(c3ccc(C(F)(F)F)cc3)N2)ccc1-n1cnc(C)c1 (stereo not given) | 36 | – | –
– | 450 | – | – | – | COc1nc(C2=NOCC(c3ccc(C#N)cc3)N2)ccc1-n1cnc(C)c1 (stereo not given) | – | – | –
– | 197 | – | – | – | COc1cccc(C2CON=C(c3ccc(-n4cnc(C)c4)c(OC)n3)N2)c1 (stereo not given) | – | – | –
– | 10 | – | 320 | – | COc1nc(C2=NOCC(c3ccc(C(C)(C)C)cc3)N2)ccc1-n1cnc(C)c1 (stereo not given) | – | – | –
– | 14 | – | 422 | – | COc1nc(C2=NOCC(c3ccc(C)c(Cl)c3)N2)ccc1-n1cnc(C)c1 (stereo not given) | – | – | –
1.3 | 10 | 127 | 70 | – | COc1nc(C2=NOCC(c3ccc(Cl)c(C)c3)N2)ccc1-n1cnc(C)c1 (stereo not given) | 30 | – | –
0.6 | 37 | 389 | 2 | – | COc1nc(C2=NOCC(c3ccc(Cl)cc3)N2)ccc1-n1cnc(C)c1 (stereo not given) | 26 | – | –
1.7 | 23 | 246 | 32 | – | COc1nc(C2=NOCC(c3ccc(Cl)c(F)c3)N2)ccc1-n1cnc(C)c1 (stereo not given) | 28 | – | –
– | 23 | – | 29 | – | COc1nc(C2=NOCC(c3cccc(C4CC4)c3)N2)ccc1-n1cnc(C)c1 (stereo not given) | – | – | –
– | 214 | – | – | – | COc1nc(C2=NOCC(c3cccc(C#N)c3)N2)ccc1-n1cnc(C)c1 (stereo not given) | – | – | –
– | 74 | – | 135 | – | COc1nc(C2=NOCC(c3ccc(C)cc3)N2)ccc1-n1cnc(C)c1 (stereo not given) | – | – | –
0.5 | 10 | 97 | – | – | COc1nc(C2=NOCC(c3ccc(Cl)c(Cl)c3)N2)ccc1-n1cnc(C)c1 (stereo not given) | 37 | – | –
– | 97 | – | – | – | COc1ccc(C2CON=C(c3ccc(-n4cnc(C)c4)c(OC)n3)N2)cc1 (stereo not given) | – | – | –
– | 2000 | – | – | – | COc1nc(C2=NOCC(c3ccccc3)N2)ccc1-n1cnc(C)c1 (stereo in doubt; 7) | – | – | –
